Consider 26 compounds from patent publication US20090197897A1, “Novel Oxadiazole Derivatives and Their Use as Positive Allosteric Modulators of Metabotropic Glutamate Receptors” (Addex Pharma SA, priority 2005, published 2009).

Each structure is given as a SMILES string.

The test deals with T1, rat mGluR5 (Rattus norvegicus, UniProt P31424).
T1 construct: expressed in transfected cells
T1 sequence (P31424 21-1171 isoform P31424-2 limits assumed): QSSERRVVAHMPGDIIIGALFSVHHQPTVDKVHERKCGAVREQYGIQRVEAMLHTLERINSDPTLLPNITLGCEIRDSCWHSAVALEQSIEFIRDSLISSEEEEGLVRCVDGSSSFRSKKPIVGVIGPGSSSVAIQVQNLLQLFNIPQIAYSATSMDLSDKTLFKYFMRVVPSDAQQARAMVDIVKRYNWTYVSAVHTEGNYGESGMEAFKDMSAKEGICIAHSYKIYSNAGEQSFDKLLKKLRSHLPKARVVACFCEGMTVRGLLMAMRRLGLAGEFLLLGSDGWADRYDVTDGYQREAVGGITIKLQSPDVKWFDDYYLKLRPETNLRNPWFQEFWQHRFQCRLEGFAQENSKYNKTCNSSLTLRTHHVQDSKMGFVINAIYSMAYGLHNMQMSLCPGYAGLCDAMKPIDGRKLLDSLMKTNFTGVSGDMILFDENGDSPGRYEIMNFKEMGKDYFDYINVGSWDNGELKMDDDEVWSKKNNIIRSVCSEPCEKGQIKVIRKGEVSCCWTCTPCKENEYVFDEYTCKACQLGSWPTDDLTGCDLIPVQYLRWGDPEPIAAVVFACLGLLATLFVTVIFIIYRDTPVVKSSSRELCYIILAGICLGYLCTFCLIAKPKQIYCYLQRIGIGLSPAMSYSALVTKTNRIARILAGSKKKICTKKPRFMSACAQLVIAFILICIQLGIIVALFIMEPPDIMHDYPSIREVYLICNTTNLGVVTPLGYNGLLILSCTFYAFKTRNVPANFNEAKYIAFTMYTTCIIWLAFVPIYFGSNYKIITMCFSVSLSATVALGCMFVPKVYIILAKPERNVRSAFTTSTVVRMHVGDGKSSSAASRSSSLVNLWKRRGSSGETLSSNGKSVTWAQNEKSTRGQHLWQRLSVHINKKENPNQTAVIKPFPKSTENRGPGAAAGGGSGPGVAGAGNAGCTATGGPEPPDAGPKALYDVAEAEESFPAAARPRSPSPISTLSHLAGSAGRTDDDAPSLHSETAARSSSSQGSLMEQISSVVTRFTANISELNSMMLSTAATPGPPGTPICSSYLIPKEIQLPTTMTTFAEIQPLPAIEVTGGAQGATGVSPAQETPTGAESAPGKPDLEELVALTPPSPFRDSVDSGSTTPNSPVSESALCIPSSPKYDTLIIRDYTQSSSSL
As to the kind of experiment: mGluR5 assay on HEK-expressing rat mGluR5 (fluorescent cell based Ca2+ mobilization assay). Conditions: HEK-293 cells stably expressing rat mGluR5; no co-addition of glutamate; mean of at least three independent experiments in duplicate; read-out: Ca++ Flux (mean EC50). The method, then:
mGluR5 Assay on HEK-Expressing Rat mGluR5
Positive functional expression of HEK-293 cells stably expressing rat mGluR5 receptor was determined by measuring intracellular Ca^2+ changes using a Fluorometric Imaging Plate Reader (FLIPR, Molecular Devices, Sunnyvale, Calif.) in response to glutamate or selective known mGluR5 agonists and antagonists. Rat mGluR5 RT-PCR products in HEK-293 cells were sequenced and found 100% identical to rat mGluR5 Genbank reference sequence (NM_017012). HEK-293 cells expressing rmGluR5 were maintained in media containing DMEM, dialyzed Fetal Bovine Serum (10%), Glutamax™ (2 mM), Penicillin (100 units/ml), Streptomycin (100 μg/ml), Geneticin (100 μg/ml) and Hygromycin-B (40 μg/ml) at 37° C./5% CO2.
After one day of incubation, cells were washed with assay buffer containing: 142 mM NaCl, 6 mM KCl, 1 mM […], 1 mM CaCl2, 20 mM HEPES, 1 g/L glucose, 0.125 mM sulfinpyrazone, pH 7.4. After 60 min of loading with 4 uM Fluo-4 (TefLabs, Austin, Tex.), the cells were washed three times with 50 μl of PBS Buffer and resuspended in 45 μl of assay Buffer. The plates were then transferred to a Fluorometric Imaging Plate Reader (FLIPR, Molecular Devices, Sunnyvale, Calif.) for the assessment of intracellular calcium flux. After monitoring the baseline fluorescence for 10 seconds, increasing concentrations of representative compound (from 0.01 to 60 μM) of the present invention diluted in Assay Buffer (15 μl of 4× dilutions) was added to the cell. The final DMSO concentration in the assay was 0.3%. In each experiment, fluorescence was then monitored as a function of time for 3 minutes and the data analyzed using Microsoft Excel and GraphPad Prism. Each data point was also measured two times.
Under these experimental conditions, this HEK-rat mGluR5 cell line is able to directly detect positive allosteric modulators without the need of co-addition of glutamate or mGluR5 agonist.
The concentration-response curves of representative compounds of the present invention were generated using the Prism GraphPad software (Graph Pad Inc, San Diego, USA). The curves were fitted to a four-parameter logistic equation:
(Y=Bottom+(Top−Bottom)/(1+10̂((Log EC50−X)*Hill Slope)
allowing determination of EC50 values.
The Table 1 below represents the mean EC50 obtained from at least three independent experiments of selected molecules performed in duplicate.
As for `Cc1cc(F)ccc1C(=O)N1CCC[C@H](c2nc(-c3ccc(F)cc3F)no2)C1` [Example 67, {(S)-3-[3-(2,4-Difluoro-phenyl)-[1,2,4]oxadiazol-5-yl]-piperidin-1-yl}-(4-fluoro-2-methyl-phenyl)-methanone], the EC50 – broadly, the midpoint of the concentration-response curve – fell in the range of 1 to 10 µM. Next, `Cc1nocc1C(=O)N1CCC[C@H](c2nc(-c3ccc(F)cc3)no2)C1` [Example 4, (S)-{3-[3-(4-Fluoro-phenyl)-[1,2,4]oxadiazol-5-yl]-piperidin-1-yl}-(3-methyl-isoxazol-4-yl)-methanone]: 1 to 10 µM; `Cc1cccnc1-c1noc([C@H]2CCCN(C(=O)c3ccc(F)cc3)C2)n1` [Example 40, (4-Fluoro-phenyl)-{(S)-3-[3-(3-methyl-pyridin-2-yl)-[1,2,4]oxadiazol-5-yl]-piperidin-1-yl}-methanone]: more than 10 µM.

Consider `Cc1cc(F)ccc1C(=O)N1CCC[C@H](c2nc(-c3ccncc3)no2)C1` [Example 53, (4-Fluoro-2-methyl-phenyl)-[(S)-3-(3-pyridin-4-yl-[1,2,4]oxadiazol-5-yl)-piperidin-1-yl]-methanone], for which the EC50 fell in the range of 1 to 10 µM. `Cc1nnsc1C(=O)N1CCC[C@H](c2nc(-c3ccc(F)cc3)no2)C1` [Example 13, {(S)-3-[3-(4-Fluoro-phenyl)-[1,2,4]oxadiazol-5-yl]-piperidin-1-yl}-(4-methyl-[1,2,3]thiadiazol-5-yl)-methanone]: the concentration giving a half-maximal response (EC50) lay in the range of 1 to 10 µM.

As to `Cc1cccc(-c2noc([C@H]3CCCN(C(=O)c4ccc(F)cc4)C3)n2)n1` [Example 33, (4-Fluoro-phenyl)-{(S)-3-[3-(6-methyl-pyridin-2-yl)-[1,2,4]oxadiazol-5-yl]-piperidin-1-yl}-methanone], the concentration for a half-maximal effect (EC50) is 1 to 10 µM.

Turning to `O=C(c1ccc(F)cc1)N1CCC[C@H](c2nc(-c3cccs3)no2)C1` [Example 37, (4-Fluoro-phenyl)-[(S)-3-(3-thiophen-2-yl-[1,2,4]oxadiazol-5-yl)-piperidin-1-yl]-methanone], the EC50 was less than 1 µM. For the compound `O=C(c1ccc(F)cc1F)N1CCC[C@H](c2nc(-c3ccccc3F)no2)C1` [Example 60, (2,4-Difluoro-phenyl)-{(S)-3-[3-(2-fluoro-phenyl)-[1,2,4]oxadiazol-5-yl]-piperidin-1-yl}-methanone], the EC50 is less than 1 µM. Regarding `O=C(c1ccc(OC(F)(F)F)cc1)N1CCC[C@H](c2nc(-c3ccc(F)cc3)no2)C1` [Example 76, {(S)-3-[3-(4-Fluoro-phenyl)-[1,2,4]oxadiazol-5-yl]-piperidin-1-yl}-(4-trifluoromethoxy-phenyl)-methanone], the EC50 was 1 to 10 µM. Take `O=C(c1c[nH]nc1C(F)(F)F)N1CCC[C@H](c2nc(-c3ccc(F)cc3)no2)C1` [Example 41, {(S)-3-[3-(4-Fluoro-phenyl)-[1,2,4]oxadiazol-5-yl]-piperidin-1-yl}-(3-trifluoromethyl-1H-pyrazol-4-yl)-methanone]: the EC50 is more than 10 µM. As for `Cc1cc(F)ccc1C(=O)N1CCC[C@H](c2nc(-c3ccccc3)no2)C1` [Example 63, (4-Fluoro-2-methyl-phenyl)-[(S)-3-(3-phenyl-[1,2,4]oxadiazol-5-yl)-piperidin-1-yl]-methanone], the figure is 1 to 10 µM; as for `Cc1ncc(-c2noc([C@H]3CCCN(C(=O)c4ccc(F)nc4)C3)n2)s1` [Example 73, (6-Fluoro-pyridin-3-yl)-{(S)-3-[3-(2-methyl-thiazol-5-yl)-[1,2,4]oxadiazol-5-yl]-piperidin-1-yl}-methanone], more than 10 µM. `O=C(c1cccnc1F)N1CCC[C@H](c2nc(-c3ccc(F)cc3)no2)C1` [Example 14, {(S)-3-[3-(4-Fluoro-phenyl)-[1,2,4]oxadiazol-5-yl]-piperidin-1-yl}-(2-fluoro-pyridin-3-yl)-methanone]: the EC50 fell in the range of 1 to 10 µM.

`Cc1ccccc1-c1noc([C@H]2CCCN(C(=O)c3ccc(F)cc3)C2)n1` [Example 48, (4-Fluoro-phenyl)-[(S)-3-(3-o-tolyl-[1,2,4]oxadiazol-5-yl)-piperidin-1-yl]-methanone]: the EC50 is more than 10 µM. As to `Cc1sccc1C(=O)N1CCC[C@H](c2nc(-c3ccc(F)cc3)no2)C1` [Example 36, {(S)-3-[3-(4-Fluoro-phenyl)-[1,2,4]oxadiazol-5-yl]-piperidin-1-yl}-(2-methyl-thiophen-3-yl)-methanone], the EC50 lay in the range of 1 to 10 µM. As for `COc1ccsc1C(=O)N1CCC[C@H](c2nc(-c3ccc(F)cc3)no2)C1` [Example 31, {(S)-3-[3-(4-Fluoro-phenyl)-[1,2,4]oxadiazol-5-yl]-piperidin-1-yl}-(3-methoxy-thiophen-2-yl)-methanone], the figure is more than 10 µM; as for `Cn1cccc1-c1noc([C@H]2CCCN(C(=O)c3ccc(F)cc3)C2)n1` [Example 39, (4-Fluoro-phenyl)-{(S)-3-[3-(1-methyl-1H-pyrrol-2-yl)-[1,2,4]oxadiazol-5-yl]-piperidin-1-yl}-methanone], 1 to 10 µM; as for `Cc1nc(C)c(C(=O)N2CCC[C@H](c3nc(-c4ccc(F)cc4)no3)C2)s1` [Example 18, (2,4-Dimethyl-thiazol-5-yl)-{(S)-3-[3-(4-fluoro-phenyl)-[1,2,4]oxadiazol-5-yl]-piperidin-1-yl}-methanone], 1 to 10 µM.

Turning to `Cc1oncc1C(=O)N1CCC[C@H](c2nc(-c3ccccc3)no2)C1` [Example 56, (5-Methyl-isoxazol-4-yl)-[(S)-3-(3-phenyl-[1,2,4]oxadiazol-5-yl)-piperidin-1-yl]-methanone], the EC50 is less than 1 µM. As for `CCc1oncc1C(=O)N1CCC[C@H](c2nc(-c3ccc(F)cc3)no2)C1` [Example 46, (5-Ethyl-isoxazol-4-yl)-{(S)-3-[3-(4-fluoro-phenyl)-[1,2,4]oxadiazol-5-yl]-piperidin-1-yl}-methanone], the figure is 1 to 10 µM; as for `CCc1ccccc1C(=O)N1CCC[C@H](c2nc(-c3ccc(F)cc3)no2)C1` [Example 20, (2-Ethyl-phenyl)-{3-[3-(4-fluoro-phenyl)-[1,2,4]oxadiazol-5-yl]-piperidin-1-yl}-methanone], 1 to 10 µM. As for `COCc1oncc1C(=O)N1CCC[C@H](c2nc(-c3ccc(F)cc3)no2)C1` [Example 47, {(S)-3-[3-(4-Fluoro-phenyl)-[1,2,4]oxadiazol-5-yl]-piperidin-1-yl}-(5-methoxymethyl-isoxazol-4-yl)-methanone], the figure is 1 to 10 µM; as for `O=C(c1ccc(F)cc1F)N1CCC[C@H](c2nc(-c3ccccn3)no2)C1` [Example 70, (2,4-Difluoro-phenyl)-[(S)-3-(3-pyridin-2-yl-[1,2,4]oxadiazol-5-yl)-piperidin-1-yl]-methanone], 1 to 10 µM; as for `Cc1ncc(-c2noc([C@H]3CCCN(C(=O)c4ccc(F)cc4F)C3)n2)s1` [Example 74, (2,4-Difluoro-phenyl)-{(S)-3-[3-(2-methyl-thiazol-5-yl)-[1,2,4]oxadiazol-5-yl]-piperidin-1-yl}-methanone], 1 to 10 µM. Next, `Cc1ccccc1C(=O)N1CCC[C@H](c2nc(-c3ccc(F)cc3)no2)C1` [Example 19, {(S)-3-[3-(4-Fluoro-phenyl)-[1,2,4]oxadiazol-5-yl]-piperidin-1-yl}-o-tolyl-methanone]: 1 to 10 µM; `O=C(c1ccc(F)nc1)N1CCC[C@H](c2nc(-c3ccccc3)no2)C1` [Example 62, (6-Fluoro-pyridin-3-yl)-[(S)-3-(3-phenyl-[1,2,4]oxadiazol-5-yl)-piperidin-1-yl]-methanone]: less than 1 µM.
